According to ChEMBL document CHEMBL1143925, “Deconstructing cytisine: The syntheses of (+/-)-cyfusine and (+/-)-cyclopropylcyfusine, fused ring analogs of cytisine” (Bioorg Med Chem Lett, 2008):

How the values were obtained:
[1] = target: Neuronal acetylcholine receptor subunit alpha-7 (Rattus norvegicus, UniProt Q05941); test: Displacement of [125I]alpha-bungarotoxin from rat alpha7 nAChR in GH4C1 cells; format: cell-based, GH4-C1
[2] = target: Neuronal acetylcholine receptor; alpha4/beta2 (Rattus norvegicus, UniProt P09483+P12390); test: Displacement of [3H]nicotine from alpha4beta2 nAChR in Sprague-Dawley rat brain membrane; format: cell membranes
Chain of Neuronal acetylcholine receptor; alpha4/beta2 (P09483 whole entry): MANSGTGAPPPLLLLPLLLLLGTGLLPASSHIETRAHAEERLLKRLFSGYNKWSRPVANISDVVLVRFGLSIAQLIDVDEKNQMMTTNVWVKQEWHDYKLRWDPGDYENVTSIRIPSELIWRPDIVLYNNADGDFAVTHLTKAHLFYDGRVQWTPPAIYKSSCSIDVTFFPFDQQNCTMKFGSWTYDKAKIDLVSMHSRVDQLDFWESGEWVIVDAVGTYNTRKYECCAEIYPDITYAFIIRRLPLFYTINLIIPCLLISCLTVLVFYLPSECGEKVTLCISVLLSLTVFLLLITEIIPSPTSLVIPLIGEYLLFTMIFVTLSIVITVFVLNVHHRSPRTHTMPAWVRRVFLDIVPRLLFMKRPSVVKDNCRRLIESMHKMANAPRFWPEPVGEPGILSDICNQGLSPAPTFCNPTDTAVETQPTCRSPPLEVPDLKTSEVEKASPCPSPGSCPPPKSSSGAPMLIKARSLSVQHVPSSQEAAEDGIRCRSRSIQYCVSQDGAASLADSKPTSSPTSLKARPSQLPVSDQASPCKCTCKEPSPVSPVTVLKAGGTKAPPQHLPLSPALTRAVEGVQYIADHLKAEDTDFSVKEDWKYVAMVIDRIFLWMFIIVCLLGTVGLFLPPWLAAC
Chain of Neuronal acetylcholine receptor; alpha4/beta2 (P12390 whole entry): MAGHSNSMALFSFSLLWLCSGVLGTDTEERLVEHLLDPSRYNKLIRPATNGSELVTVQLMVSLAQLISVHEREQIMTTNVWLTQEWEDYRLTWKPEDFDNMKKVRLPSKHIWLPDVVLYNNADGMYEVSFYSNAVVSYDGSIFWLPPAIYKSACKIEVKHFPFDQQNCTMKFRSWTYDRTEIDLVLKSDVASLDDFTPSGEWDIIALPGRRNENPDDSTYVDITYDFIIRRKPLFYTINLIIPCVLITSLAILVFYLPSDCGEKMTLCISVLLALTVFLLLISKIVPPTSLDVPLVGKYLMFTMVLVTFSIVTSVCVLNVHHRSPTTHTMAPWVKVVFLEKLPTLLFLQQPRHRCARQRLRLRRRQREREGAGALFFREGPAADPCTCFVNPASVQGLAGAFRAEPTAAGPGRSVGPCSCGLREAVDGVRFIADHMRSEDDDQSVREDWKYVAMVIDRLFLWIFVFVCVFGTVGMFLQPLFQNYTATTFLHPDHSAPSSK

[3] = target: Neuronal acetylcholine receptor; alpha3/beta4 (Homo sapiens, UniProt P30926+P32297); test: Displacement of [3H]epibatidine from human alpha3beta4 nAChR in IMR32 cells; format: cell-based, IMR-32
Chain of Neuronal acetylcholine receptor; alpha3/beta4 (P30926 whole entry): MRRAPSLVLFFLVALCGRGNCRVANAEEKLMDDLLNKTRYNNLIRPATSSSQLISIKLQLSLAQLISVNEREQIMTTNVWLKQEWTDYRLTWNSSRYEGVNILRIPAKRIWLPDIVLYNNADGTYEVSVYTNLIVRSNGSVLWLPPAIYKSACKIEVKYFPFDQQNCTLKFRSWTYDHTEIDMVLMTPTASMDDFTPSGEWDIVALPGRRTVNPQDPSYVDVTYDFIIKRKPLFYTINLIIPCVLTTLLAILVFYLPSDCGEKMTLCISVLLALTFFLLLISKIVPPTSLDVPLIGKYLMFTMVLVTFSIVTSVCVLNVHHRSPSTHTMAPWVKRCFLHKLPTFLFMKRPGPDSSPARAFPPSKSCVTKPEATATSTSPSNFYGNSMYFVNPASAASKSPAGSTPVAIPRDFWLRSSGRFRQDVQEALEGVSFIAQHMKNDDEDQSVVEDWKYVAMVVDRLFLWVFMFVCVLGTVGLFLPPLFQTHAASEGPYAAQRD
Chain of Neuronal acetylcholine receptor; alpha3/beta4 (P32297 whole entry): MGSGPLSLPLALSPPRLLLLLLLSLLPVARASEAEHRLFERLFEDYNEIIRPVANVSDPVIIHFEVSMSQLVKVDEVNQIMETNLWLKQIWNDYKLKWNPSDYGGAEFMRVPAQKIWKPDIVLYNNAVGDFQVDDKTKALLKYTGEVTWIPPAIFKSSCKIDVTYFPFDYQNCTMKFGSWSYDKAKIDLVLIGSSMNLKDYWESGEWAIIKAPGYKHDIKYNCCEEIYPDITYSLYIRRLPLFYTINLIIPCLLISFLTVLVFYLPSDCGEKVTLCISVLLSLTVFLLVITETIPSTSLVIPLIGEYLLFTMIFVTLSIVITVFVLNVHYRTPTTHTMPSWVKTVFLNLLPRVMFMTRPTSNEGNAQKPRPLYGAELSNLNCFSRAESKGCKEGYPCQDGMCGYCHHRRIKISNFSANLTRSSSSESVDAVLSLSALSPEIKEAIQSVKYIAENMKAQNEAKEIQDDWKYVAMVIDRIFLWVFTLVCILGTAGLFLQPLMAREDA

Chain of Neuronal acetylcholine receptor subunit alpha-7 (Q05941 whole entry): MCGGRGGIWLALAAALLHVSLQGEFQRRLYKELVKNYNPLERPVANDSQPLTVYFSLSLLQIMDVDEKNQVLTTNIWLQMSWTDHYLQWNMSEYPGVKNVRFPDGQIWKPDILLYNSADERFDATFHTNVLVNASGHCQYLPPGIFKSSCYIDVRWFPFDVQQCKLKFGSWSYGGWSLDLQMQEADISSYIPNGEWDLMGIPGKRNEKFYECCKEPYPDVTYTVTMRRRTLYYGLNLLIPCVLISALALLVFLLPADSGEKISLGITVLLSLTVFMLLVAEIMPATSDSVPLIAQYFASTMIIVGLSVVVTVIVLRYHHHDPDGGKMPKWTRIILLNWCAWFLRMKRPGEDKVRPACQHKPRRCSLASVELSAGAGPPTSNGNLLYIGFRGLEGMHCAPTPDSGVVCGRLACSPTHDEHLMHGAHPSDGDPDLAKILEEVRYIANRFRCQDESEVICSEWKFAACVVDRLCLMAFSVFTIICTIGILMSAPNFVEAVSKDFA

Structure (SMILES) | Ki [1] [µM] | Ki [2] [µM] | Ki [3] [µM]
O=c1cccc2n1CC1CNCC21 (racemic) [CYFUSINE] | > 0.5 | 0.016 | > 0.5
O=c1cccc2n1C[C@@H]1CNC[C@H]2C1 [CYTISINICLINE] | 5.82 | 0.00043 | 1.56
O=c1cccc2n1CC13CNCC21C3 (racemic) [CYCLOPROPYLCYFUSINE] | > 0.5 | 0.144 | > 0.5
